# Assay results taken from the NIST ThermoML archive (doi:10.1021/je5010214).
# Numbers after ± are expanded uncertainties.
# Conditions: Liquid, Vibrating tube method
smiles,measurement,setting,value
CC(C)CO [2-methyl-1-propanol],mass density,"313.15 K, 14927 kPa",799.577 ± 0.83 kg/m3
same,mass density,"313.15 K, 17845 kPa",801.775 ± 0.83 kg/m3
same,mass density,"313.15 K, 20040 kPa",803.389 ± 0.84 kg/m3
same,mass density,"313.15 K, 21942 kPa",804.76 ± 0.84 kg/m3
same,mass density,"313.15 K, 24894 kPa",806.85 ± 0.84 kg/m3
same,mass density,"313.15 K, 28132 kPa",809.095 ± 0.85 kg/m3
same,mass density,"313.15 K, 29974 kPa",810.333 ± 0.85 kg/m3
same,mass density,"313.15 K, 32058 kPa",811.716 ± 0.86 kg/m3
same,mass density,"313.15 K, 35162 kPa",813.664 ± 0.87 kg/m3
same,mass density,"313.15 K, 37952 kPa",815.444 ± 0.87 kg/m3
same,mass density,"313.15 K, 40011 kPa",816.732 ± 0.88 kg/m3
same,mass density,"313.15 K, 41939 kPa",817.878 ± 0.88 kg/m3
same,mass density,"313.15 K, 45098 kPa",819.95 ± 0.89 kg/m3
same,mass density,"313.15 K, 47966 kPa",821.512 ± 0.89 kg/m3
same,mass density,"313.15 K, 49918 kPa",822.65 ± 0.9 kg/m3
same,mass density,"313.15 K, 52024 kPa",823.857 ± 0.9 kg/m3
same,mass density,"313.15 K, 54951 kPa",825.557 ± 0.91 kg/m3
same,mass density,"313.15 K, 58062 kPa",827.336 ± 0.92 kg/m3
same,mass density,"313.15 K, 60202 kPa",828.515 ± 0.92 kg/m3
same,mass density,"313.15 K, 65050 kPa",831.15 ± 0.93 kg/m3
same,mass density,"313.15 K, 66082 kPa",831.7 ± 0.94 kg/m3
same,mass density,"313.16 K, 33053 kPa",812.371 ± 0.86 kg/m3
same,mass density,"313.16 K, 33131 kPa",812.356 ± 0.86 kg/m3
same,mass density,"313.16 K, 34040 kPa",812.94 ± 0.86 kg/m3
same,mass density,"313.16 K, 62187 kPa",829.599 ± 0.93 kg/m3
same,mass density,"318.15 K, 368.3 kPa",783.457 ± 0.81 kg/m3
same,mass density,"318.15 K, 589.4 kPa",783.667 ± 0.81 kg/m3
same,mass density,"318.15 K, 9887.6 kPa",791.657 ± 0.82 kg/m3
same,mass density,"318.15 K, 33065 kPa",808.852 ± 0.86 kg/m3
same,mass density,"318.15 K, 33128 kPa",808.894 ± 0.86 kg/m3
same,mass density,"318.15 K, 35190 kPa",810.134 ± 0.87 kg/m3
same,mass density,"318.15 K, 48088 kPa",818.249 ± 0.9 kg/m3
same,mass density,"318.15 K, 52184 kPa",820.67 ± 0.91 kg/m3
same,mass density,"318.15 K, 60194 kPa",825.273 ± 0.93 kg/m3
same,mass density,"318.15 K, 62260 kPa",826.409 ± 0.93 kg/m3
same,mass density,"318.15 K, 65194 kPa",828.017 ± 0.94 kg/m3
same,mass density,"318.15 K, 66060 kPa",828.484 ± 0.94 kg/m3
same,mass density,"318.16 K, 128.5 kPa",783.253 ± 0.81 kg/m3
same,mass density,"318.16 K, 858.2 kPa",783.902 ± 0.81 kg/m3
same,mass density,"318.16 K, 1069.5 kPa",784.105 ± 0.81 kg/m3
same,mass density,"318.16 K, 1979.1 kPa",784.923 ± 0.81 kg/m3
same,mass density,"318.16 K, 2997.4 kPa",785.79 ± 0.81 kg/m3
same,mass density,"318.16 K, 4942.6 kPa",787.513 ± 0.81 kg/m3
same,mass density,"318.16 K, 6987.2 kPa",789.27 ± 0.82 kg/m3
same,mass density,"318.16 K, 8967.5 kPa",790.929 ± 0.82 kg/m3
same,mass density,"318.16 K, 11870 kPa",793.265 ± 0.82 kg/m3
same,mass density,"318.16 K, 14863 kPa",795.639 ± 0.83 kg/m3
same,mass density,"318.16 K, 17735 kPa",797.848 ± 0.83 kg/m3
same,mass density,"318.16 K, 19860 kPa",799.438 ± 0.84 kg/m3
same,mass density,"318.16 K, 21987 kPa",801.004 ± 0.84 kg/m3
same,mass density,"318.16 K, 25193 kPa",803.357 ± 0.85 kg/m3
same,mass density,"318.16 K, 27823 kPa",805.216 ± 0.85 kg/m3
same,mass density,"318.16 K, 30119 kPa",806.799 ± 0.86 kg/m3
same,mass density,"318.16 K, 32145 kPa",808.205 ± 0.86 kg/m3
same,mass density,"318.16 K, 34164 kPa",809.488 ± 0.87 kg/m3
same,mass density,"318.16 K, 38074 kPa",812.009 ± 0.87 kg/m3
same,mass density,"318.16 K, 40048 kPa",813.265 ± 0.88 kg/m3
same,mass density,"318.16 K, 41997 kPa",814.496 ± 0.88 kg/m3
same,mass density,"318.16 K, 45096 kPa",816.426 ± 0.89 kg/m3
same,mass density,"318.16 K, 50173 kPa",819.491 ± 0.9 kg/m3
same,mass density,"318.16 K, 55235 kPa",822.46 ± 0.91 kg/m3
same,mass density,"318.16 K, 58075 kPa",824.084 ± 0.92 kg/m3
same,mass density,"323.15 K, 62.1 kPa",778.89 ± 0.81 kg/m3
same,mass density,"323.15 K, 338 kPa",779.159 ± 0.81 kg/m3
same,mass density,"323.15 K, 557.5 kPa",779.374 ± 0.81 kg/m3
same,mass density,"323.15 K, 917.3 kPa",779.697 ± 0.81 kg/m3
same,mass density,"323.15 K, 2125.4 kPa",780.833 ± 0.81 kg/m3
same,mass density,"323.15 K, 3154.8 kPa",781.778 ± 0.81 kg/m3
same,mass density,"323.15 K, 5126.4 kPa",783.557 ± 0.81 kg/m3
same,mass density,"323.15 K, 7366.8 kPa",785.517 ± 0.82 kg/m3
same,mass density,"323.15 K, 9081.6 kPa",787.01 ± 0.82 kg/m3
same,mass density,"323.15 K, 10156 kPa",787.907 ± 0.82 kg/m3
same,mass density,"323.15 K, 12167 kPa",789.544 ± 0.82 kg/m3
same,mass density,"323.15 K, 15030 kPa",791.876 ± 0.83 kg/m3
same,mass density,"323.15 K, 18076 kPa",794.274 ± 0.83 kg/m3
same,mass density,"323.15 K, 19932 kPa",795.694 ± 0.84 kg/m3
same,mass density,"323.15 K, 22079 kPa",797.333 ± 0.84 kg/m3
same,mass density,"323.15 K, 25085 kPa",799.541 ± 0.85 kg/m3
same,mass density,"323.15 K, 28006 kPa",801.644 ± 0.85 kg/m3
same,mass density,"323.15 K, 30029 kPa",803.084 ± 0.86 kg/m3
same,mass density,"323.15 K, 31969 kPa",804.431 ± 0.86 kg/m3
